Values quoted from earlier work as cited in US8372452B2, “Oral herbal composition for the treatment of oral candidiasis” (Piramal Life Sciences Limited, priority 2008, dated 2013).

System: oral pathogens (Enterococcus faecalis, Streptococcus salivarius, Streptococcus mitis, Streptococcus mutans, Streptococcus sobrinus, Streptococcus sanguinis and …)
Settings: literature report, Silva M L et al. 2007

Q: With (−)-cubebin as the substance, how does the “activity against oral pathogens (microorganisms)” value read?
A: exhibited activity
